Source: US20050209251A1, “Substituted pyrazolo-pyrimidine-4-ones” (priority 2002, published 2005)
Where two headings read alike, the source gives them in different places.

Experiments:
[1] = logP determination by reversed-phase HPLC (EEC Directive 79/831 Annex V.A8), acidic range; assay type: physicochemical
Procedure: The logP values given in the table were determined in accordance with EEC Directive 79/831 Annex V.A8 by HPLC (High Performance Liquid Chromatography) using a reversed-phase column (C 18). Temperature: 43° C.
(a) Mobile phases for the determination in the acidic range: 0.1% phosphoric acid, acetonitrile; linear gradient from 10% acetonitrile to 90% acetonitrile—the corresponding measurement results in Table 1 are marked a).
Calibration was carried out using unbranched alkan-2-ones (having 3 to 16 carbon atoms) with known logP values (determination of the logP values by the retention times using linear interpolation between two successive alkanones).

[2] = tested on: weeds; assay: Post-emergence test (herbicidal action); assay type: in vivo; conditions: test plants of 5-15 cm sprayed, rated after three weeks
Procedure: Post-Emergence Test (Herbicidal Action)
(§1) To produce a suitable preparation of active compound, 1 part by weight of active compound is mixed with the stated amount of solvent, the stated amount of emulsifier is added and the concentrate is diluted with water to the desired concentration.
Test plants of a height of 5-15 cm are sprayed with the preparation of active compound such that the particular amounts of active compound desired are applied per unit area. The concentration of the spray liquor is chosen such that the particular amounts of active compound desired are applied in 1000 l of water/ha.
(§2) After three weeks, the degree of damage to the plants is rated in % damage in comparison to the development of the untreated control.

[3] = tested on: weeds; assay: Pre-emergence test (herbicidal action); assay type: in vivo; conditions: soil sprayed 24 hours after sowing, rated after three weeks
Procedure: Pre-Emergence Test (Herbicidal Action)
as §1
Seeds of the test plants are sown in normal soil. After 24 hours, the soil is sprayed with the preparation of active compound such that the particular amount of active compound desired is applied per unit area. The concentration of active compound in the spray liquor is chosen such that the particular amount of active compound desired is applied in 1000 litres of water per hectare.
as §2

[4] = pH 2, HPLC, C18 reversed-phase column, read-out: logP (pH 2)

Compound	logP a) (Table 1, Physical data) [1]	further results
1-(3-chloro-5-trifluoromethylpyridin-2-yl)-4-methoxy-6-cyclopropylpyrazolopyrimidin-4-one [Example 110]	(Ia) logP = 3.97^a)	logP (pH 2) ([1]; pH 2): 3.97; herbicidal action against weeds (degree of damage) [2]: strong action against weeds
O=c1[nH]cnc2c1cnn2-c1ncc(C(F)(F)F)cc1Cl [Example 1, 1-(3-chloro-5-trifluoromethylpyridin-2-yl)-1,5-dihydropyrazolo[3,4-d]pyrimidin-4-one]		chromatographic logP [1, 4]: 1.54; melting point: 331 °C
Cc1nc2c(cnn2-c2ncc(C(F)(F)F)cc2Cl)c(=O)[nH]1 [Example 7]	(I) logP = 1.64^a)	
Cc1nc2c(cnn2-c2ncc(C(F)(F)F)cc2Cl)c(=O)n1C [Example 8]	(I) logP = 1.97^a)	herbicidal action against weeds (degree of damage) [3]: strong action against weeds
O=c1[nH]c(C(Cl)Cl)nc2c1cnn2-c1ncc(C(F)(F)F)cc1Cl [Example 12]	(I) logP = 2.39^a)	
CCc1nc2c(cnn2-c2ncc(C(F)(F)F)cc2Cl)c(=O)[nH]1 [Example 13]	(I) logP = 2.39^a)	
CC(C)c1nc2c(cnn2-c2ncc(C(F)(F)F)cc2Cl)c(=O)[nH]1 [Example 17]	(I) logP = 2.36^a)	
CC(C)c1nc2c(cnn2-c2ncc(C(F)(F)F)cc2Cl)c(=O)n1C [Example 18]	(I) logP = 2.89^a)	herbicidal action against weeds (degree of damage) [3]: strong action against weeds; herbicidal action against weeds (degree of damage) [2]: strong action against weeds
CCCc1nc2c(cnn2-c2ncc(C(F)(F)F)cc2Cl)c(=O)[nH]1 [Example 23]	(I) logP = 2.28^a)	
CCCc1nc2c(cnn2-c2ncc(C(F)(F)F)cc2Cl)c(=O)n1C [Example 24]	(I) logP = 2.81^a)	herbicidal action against weeds (degree of damage) [3]: strong action against weeds; herbicidal action against weeds (degree of damage) [2]: strong action against weeds
CC(C)Cc1nc2c(cnn2-c2ncc(C(F)(F)F)cc2Cl)c(=O)[nH]1 [Example 25]	(I) logP = 2.52^a)	
CC(C)(C)c1nc2c(cnn2-c2ncc(C(F)(F)F)cc2Cl)c(=O)[nH]1 [Example 26]	(I) logP = 2.74^a)	
COc1nc(C(C)(C)C)nc2c1cnn2-c1ncc(C(F)(F)F)cc1Cl [Example 27]	(Ia) logP = 2.74^a)	herbicidal action against weeds (degree of damage) [3]: strong action against weeds; herbicidal action against weeds (degree of damage) [2]: strong action against weeds
O=c1[nH]c(C(F)(F)F)nc2c1cnn2-c1ncc(C(F)(F)F)cc1Cl [Example 37]	(I) logP = 2.42^a)	
Cn1c(C(F)(F)F)nc2c(cnn2-c2ncc(C(F)(F)F)cc2Cl)c1=O [Example 38]	(I) logP = 3.11^a)	
COc1nc(C(F)(F)F)nc2c1cnn2-c1ncc(C(F)(F)F)cc1Cl [Example 39]	(Ia) logP = 3.99^a)	herbicidal action against weeds (degree of damage) [2]: strong action against weeds
CCOC(=O)COc1nc(C(F)(F)F)nc2c1cnn2-c1ncc(C(F)(F)F)cc1Cl [Example 42]	(Ia) logP = 4.05^a)	
O=c1[nH]c(C(F)(F)Cl)nc2c1cnn2-c1ncc(C(F)(F)F)cc1Cl [Example 43]	(I) logP = 2.53^a)	
O=c1[nH]c(C(F)(F)C(F)(F)F)nc2c1cnn2-c1ncc(C(F)(F)F)cc1Cl [Example 44]	(I) logP = 2.84^a)	
CCOC(=O)c1nc2c(cnn2-c2ncc(C(F)(F)F)cc2Cl)c(=O)n1C [Example 46]	(I) logP = 2.74^a)	
CCn1c(C2CC2)nc2c(cnn2-c2ncc(C(F)(F)F)cc2Cl)c1=O [Example 50]	(I) logP = 2.96^a)	
CCOc1nc(C2CC2)nc2c1cnn2-c1ncc(C(F)(F)F)cc1Cl [Example 51]	(Ia) logP = 4.42^a)	

Compound	logP a) (Table 1, Physical data) [1]	further results
CC(C)Oc1nc(C2CC2)nc2c1cnn2-c1ncc(C(F)(F)F)cc1Cl [Example 52]	(Ia) logP = 4.86^a)	
C#CCn1c(C2CC2)nc2c(cnn2-c2ncc(C(F)(F)F)cc2Cl)c1=O [Example 56]	(I) logP = 2.95^a)	
FC(F)Oc1nc(C2CC2)nc2c1cnn2-c1ncc(C(F)(F)F)cc1Cl [Example 57]	(Ia) logP = 4.24^a)	herbicidal action against weeds (degree of damage) [3]: strong action against weeds; herbicidal action against weeds (degree of damage) [2]: strong action against weeds
CCOC(=O)COc1nc(C2CC2)nc2c1cnn2-c1ncc(C(F)(F)F)cc1Cl [Example 58]	(Ia) logP = 3.88^a)	
Cn1c(C2(F)CC2)nc2c(cnn2-c2ncc(C(F)(F)F)cc2Cl)c1=O [Example 59]	(I) logP = 2.82^a)	herbicidal action against weeds (degree of damage) [3]: strong action against weeds; herbicidal action against weeds (degree of damage) [2]: strong action against weeds
COc1nc(C2(F)CC2)nc2c1cnn2-c1ncc(C(F)(F)F)cc1Cl [Example 60]	(Ia) logP = 3.73^a)	herbicidal action against weeds (degree of damage) [3]: strong action against weeds; herbicidal action against weeds (degree of damage) [2]: strong action against weeds
O=c1[nH]c(C2CCC2)nc2c1cnn2-c1ncc(C(F)(F)F)cc1Cl [Example 63]	(I) logP = 2.46^a)	
Cn1c(C2CCC2)nc2c(cnn2-c2ncc(C(F)(F)F)cc2Cl)c1=O [Example 64]	(I) logP = 3.03^a)	herbicidal action against weeds (degree of damage) [3]: strong action against weeds; herbicidal action against weeds (degree of damage) [2]: strong action against weeds
COc1nc(C(F)(F)F)nc2c1cnn2-c1ncc(Cl)cc1Cl [Example 72]	(Ia) logP = 3.76^a)	
Cc1nc2c(cnn2-c2ccc(C(F)(F)F)cc2Cl)c(=O)n1C [Example 81]	(I) logP = 2.30^a)	
CC(C)c1nc2c(cnn2-c2ccc(C(F)(F)F)cc2Cl)c(=O)n1C [Example 84]	(I) logP = 3.52^a)	
Cc1nc2c(cnn2-c2nn(C)c(OC(F)F)c2Cl)c(=O)[nH]1 [Example 98]	(I) logP = 1.40^a)m.p. = 254 °C	
Cc1nc2c(cnn2-c2nn(C)c(OC(F)F)c2Cl)c(=O)n1C [Example 99]	(I) logP = 1.68^a)m.p. = 199 °C	
Cn1nc(-n2ncc3c(=O)[nH]c(C4CC4)nc32)cc1OC(F)F [Example 101]	(I) logP = 1.59^a)	
Cn1nc(-n2ncc3c(=O)n(C)c(C4CC4)nc32)cc1OC(F)F [Example 102]	(I) logP = 1.90^a)	
COc1nc(C2CC2)nc2c1cnn2-c1cc(OC(F)F)n(C)n1 [Example 103]	(Ia) logP = 3.02^a)	
Cn1nc(-n2ncc3c(=O)[nH]c(C4CC4)nc32)c(Cl)c1OC(F)F [Example 106]	(I) logP = 1.85^a)m.p. = 210 °C	
Cn1nc(-n2ncc3c(=O)n(C)c(C4CC4)nc32)c(Cl)c1OC(F)F [Example 107]	(I) logP = 2.21^a)m.p. = 220 °C	
Cn1c(C2CC2)nc2c(cnn2-c2ncc(C(F)(F)F)cc2Cl)c1=O [Example 109, 1-(3-chloro-5-trifluoromethylpyridin-2-yl)-5-methyl-6-cyclopropyl-1,5-dihydropyrazolo[3,4-d]pyrimidin-4-one]		herbicidal action against weeds (degree of damage) [3]: strong action against weeds; chromatographic logP [1, 4]: 2.61; chromatographic logP ([1]; reversed-phase HPLC column (C18); acidic range: 0.1% phosphoric acid, acetonitrile gradient; C18; 43° C.; read-out: logP a) (Table 1, Physical data)): 2.61; herbicidal action against weeds (degree of damage) [2]: strong action against weeds
NC(=O)c1cnn(-c2ncc(Cl)cc2Cl)c1N [II-2]		logP a) (Table 2, Physical data) [1]: logP = 1.02^a)
CC(C)(C)C(=O)Nc1c(C(N)=O)cnn1-c1ncc(C(F)(F)F)cc1Cl [VI-2]		logP a) (Table 3, Physical data) [1]: logP = 2.20^a)
CC(C)(CCl)C(=O)Nc1c(C(N)=O)cnn1-c1ncc(C(F)(F)F)cc1Cl [VI-3]		logP a) (Table 3, Physical data) [1]: logP = 2.26^a)
